Measurements: the supplement of paper PMC9265050, “Inhibition of RNA Binding in SND1 Increases the Levels of miR-1-3p and Sensitizes Cancer Cells to Navitoclax” (Cancers, 2022)

Tested on: SW480
Test: drug sensitivity score (DSS, integrated dose-response area); higher = more sensitive (stronger viability reduction); extreme values may be limits of the assay
Outline: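 Viability of induced SW480 cells carrying control or SND1-targeting shRNA was read by CellTiter-Glo 72 h after plating at 1000 cells per well onto 384-well plates holding 525 small-molecule inhibitors at five concentrations. Induction used 0.1 µg/mL doxycycline for 7 days. Each drug sensitivity score integrates the area under a fitted non-linear dose–response model.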

[1] = shRNA: SND1 shRNA1 (SND1 silenced)
[2] = shRNA: control shRNA (non-targeting)
[3] = shRNA: SND1 shRNA2 (SND1 silenced)

SMILES | drug sensitivity score [1] | drug sensitivity score [2] | drug sensitivity score [3]
O=C(Nc1cccc(C(F)(F)F)c1)Nc1cc(S(=O)(=O)NC2CC2)ccc1-c1ccsc1 [AGI-6780] | 0.2 DSS | 0.5 DSS | 
CCCCc1nc2cc(/C=C/C(=O)NO)ccc2n1CCN(CC)CC [Pracinostat] | 21.1 DSS | 19.3 DSS | 17.2 DSS
CC(=O)O[C@@]12CO[C@@H]1C[C@H](O)[C@@]1(C)C(=O)[C@H](O)C3=C(C)[C@@H](OC(=O)[C@H](O)[C@@H](NC(=O)OC(C)(C)C)c4ccccc4)C[C@@](O)([C@@H](OC(=O)c4ccccc4)[C@H]21)C3(C)C [Docetaxel] | 18.1 DSS | 19 DSS | 16.5 DSS
Cc1nn(C)c(COc2ccc(N3CCN(S(=O)(=O)N(C)C)CC3)cc2)c1-c1cccc2c(CCCOc3cccc4ccccc34)c(C(=O)O)n(CCN3CCOCC3)c12 | 4.9 DSS | 5.7 DSS | 4.4 DSS
Cn1cc(C[C@@H](N)C(=O)O)c2ccccc21 [1-methyl-D-tryptophan] | 0 DSS | 0 DSS | 
CNC(=O)c1cc(Oc2ccc(NC(=O)Nc3ccc(Cl)c(C(F)(F)F)c3)c(F)c2)ccn1 [Regorafenib] | 7.8 DSS | 5.1 DSS | 7.9 DSS
CC[C@H](C)C(=O)O[C@H]1C[C@H](O)C=C2C=C[C@H](C)[C@H](CC[C@@H](O)C[C@@H](O)CC(=O)O)[C@H]21 [Pravastatin] | 0 DSS | 3.1 DSS | 
CC(O)(CS(=O)(=O)c1ccc(F)cc1)C(=O)Nc1ccc(C#N)c(C(F)(F)F)c1 (stereo not given) [Bicalutamide] | 0.4 DSS | 1.4 DSS | 0.3 DSS
COc1cc(Nc2ncc3c(n2)-c2ccc(Cl)cc2C(c2c(F)cccc2OC)=NC3)ccc1C(=O)O [Alisertib] | 12.6 DSS | 6.5 DSS | 4.4 DSS
O=C(c1cccc(Cl)c1F)N1CCN(Cc2cccc(Nc3nccs3)n2)CC1 [MK-8745] | 1.7 DSS | 1.9 DSS | 
COc1ccc(Cl)c(Nc2nc3ccccc3nc2NS(=O)(=O)c2cccc(NC(=O)C(C)(C)N)c2)c1 [Pilaralisib] | 0.8 DSS | 0.8 DSS | 0.7 DSS
CCc1c2c(nc3ccc(OC(=O)N4CCC(N5CCCCC5)CC4)cc13)-c1cc3c(c(=O)n1C2)COC(=O)[C@]3(O)CC [Irinotecan] | 3.2 DSS | 5.5 DSS | 1.6 DSS
O=C(Nc1cccc(NC(=O)c2cccc(O)c2O)c1)c1cccc(O)c1O [MST-312] | 7.6 DSS | 8.2 DSS | 5.2 DSS
O=C(c1ccc(OCCN2CCCCC2)cc1)c1c(-c2ccc(O)cc2)sc2cc(O)ccc12 [Raloxifene] | 6.6 DSS | 7.2 DSS | 4.1 DSS
N#CCNC(=O)c1ccc(-c2ccnc(Nc3ccc(N4CCOCC4)cc3)n2)cc1 [Momelotinib] | 3.8 DSS | 1.9 DSS | 2.1 DSS
C[C@]12CC[C@@H]3c4ccc(O)cc4C[C@@H](CCCCCCCCC[S+]([O-])CCCC(F)(F)C(F)(F)F)[C@H]3[C@@H]1CC[C@@H]2O (stereo not given in full) [Fulvestrant] | 0 DSS | 1.3 DSS | 0 DSS
CC(C)[C@H]1C(=O)N[C@@H](CCCNC(=N)N)C(=O)NCC(=O)N[C@@H](CC(=O)O)C(=O)N[C@H](Cc2ccccc2)C(=O)N1C [Cilengitide] | 0 DSS | 0 DSS | 0 DSS
Nc1ncn([C@H]2C[C@H](O)[C@@H](CO)O2)c(=O)n1 [Decitabine] | 11 DSS | 5.5 DSS | 8.2 DSS
CCN(c1cc(-c2ccc(CN3CCOCC3)cc2)cc(C(=O)NCc2c(C)cc(C)[nH]c2=O)c1C)C1CCOCC1 [Tazemetostat] | 3.8 DSS | 2.2 DSS | 0.8 DSS
CN1CCN(c2ccc3nc(-c4c(N)c5c(F)cccc5[nH]c4=O)[nH]c3c2)CC1 [Dovitinib] | 0.1 DSS | 0 DSS | 0 DSS
CC(C)N(CCCNC(=O)Nc1ccc(C(C)(C)C)cc1)C[C@H]1O[C@@H](n2cc(Br)c3c(N)ncnc32)[C@H](O)[C@@H]1O [SGC0946] | 4.6 DSS | 4.3 DSS | 1.3 DSS
O=[N+]([O-])c1ccc2c(c1)S(=O)(=O)C=C2 [Stattic] | 16 DSS | 9.5 DSS | 15.8 DSS
COC1=CC(c2cc3ccccc3[nH]2)=N/C1=C\c1[nH]c(C)cc1C [Obatoclax] | 2.5 DSS | 0.1 DSS | 0 DSS
